Counter-ions that a name gives are not always drawn.
Assays:
[1] = target: recombinant Chk2 protein kinase (Homo sapiens, UniProt O96017); experiment: Chk2 biochemical assay (CHK2/substrate peptide filter binding); conditions: 60 μM ATP, 1.4 nM Chk2 enzyme
Method: The effect of compounds on Chk2 biochemical activity can be determined using a CHK2/substrate peptide filter binding assay. In this assay, a synthetic peptide based on the amino acid sequence residues 206-225 of Cdc25C, is used as a phospho-acceptor substrate for recombinant Chk2 protein kinase. Using γ-^33P-ATP as the phospho-donor substrate, Chk2 transfers the radioactive γ-^33phosphate group to the synthetic peptide. The reaction is measured by capturing the peptide substrate on a cation exchange paper filter plate and scintillation counting of emitted beta particles.
The kinase reactions (40 μL reaction volumes) are performed in 96-well V-bottom polystyrene plates. Reactions are initiated with the addition of Chk2 enzyme. […]
Following Chk2 enzyme addition, the reactions are incubated at room temperature for 90 min, and then terminated with the addition of 140 μL of phosphoric acid. […] After sitting for 4 h at room temperature, the radioactivity in the plate is measured using a MicroBeta Trilux microplate scintillation counter (Perkin Elmer).
For IC50 determination, the percent inhibition for each concentration is calculated using the […] from controls run on each plate. […] Absolute IC50 values are calculated from the resulting curve. […]

HeLa cells = experiment: Doxorubicin-induced G2M checkpoint abrogation HeLa cell-based Acumen assay (pHH3); conditions: 125 nM doxorubicin, 7 h compound
Method: An inhibitor of Chk1 will disable the G2M DNA damage checkpoint in p53-minus tumor cells treated with the topoisomerase II inhibitor, doxorubicin. A measurement of G2M checkpoint abrogation is the phosphorylation of histone H3 on serine 10 that occurs after cells traverse the G2M checkpoint and enter mitosis. The following high content imaging assay can be used to measure the phosphorylation histone H3 in cells. HeLa cells are cultured in MEM Media supplemented with 10% (v/v) FBS and plated at 2000 cells per well in poly D-lysine coated clear bottom black plates, 100 μL volume per well. Plates are then incubated in a cell culture incubator for 18-24 h (37° C., 5% CO2 and 95% relative humidity), Following the initial incubation, 20 μL of MEM Media plus 10% FBS containing […] doxorubicin are added to the appropriate wells of the plates resulting in a final concentration of 125 nM. The plates are returned to the incubator for 24 h, sufficient to arrest the cells at the G2M checkpoint. The next day the cells are treated 1.0 with compounds. Compounds are solubilized at […] in 100% DMSO and then diluted to a 10× stock starting at 50 μM in MEM plus 4% (v/v) DMSO. Subsequently, serial dilutions of the compounds (1:2) are prepared over a 50 μM to 0.39 μM range. Thirteen μL of compound stock is added to the appropriate wells in the plate to produce a final DMSO concentration of 0.4% and a final compound concentration range between 5 and 0.039 μM. […] Plates are scanned with ACUMEN EXPLORER™ Laser-scanning fluorescence microplate cytometers using 488 nm excitation (TTP LABTECH LTC) to measure pHH3 and DNA content including 2N, and 4N, The pHH3 positive cells are identified by mean intensity at 519 nm from Alexa 488. […] The final readout for each population is determined by normalizing to the % of total cells producing a final assay output of % pHH3, % 2N, and % 4N. 100% activity is then determined by treating cells with the maximum concentration of an inhibitor control compound at 100 nM to determine the final % activity of each compound. […]

[2] = system: HT-29 colon carcinoma cells; experiment: ECtfs (two-fold sensitization) assay, gemcitabine potentiation, MTS; assay type: cell-based; conditions: Homo sapiens, HT-29 cells
Method: An inhibitor of Chk1 can potentiate the anti-proliferative activity of gemcitabine (or other cytotoxics) through abrogation of the intra-S phase checkpoint, resulting in sustained and increased DNA damage. The capacity for continued tumor cell proliferation after DNA damage can be analyzed by determining the ability of cells to replicate their DNA. […] In this assay, cells are treated with a dilution series of gemcitabine, and then 22 h later with the compound of Example 3, After an additional 44 h, the relative cell number is assessed by a MTS (3-(4,5-dimethylthiazol-2-yl)-5-(3-carboxymethoxyphenyl)-2-(4-sulfophenyl)-2H-tetrazolium) dye reduction assay. The ECtfs parameter is a measure of the concentration of a Chk1 inhibitor necessary to reduce by half the (1190 concentration of gemcitabine, measured in this assay in the absence of Chk1 inhibition. HT-29 cells (obtained from ATCC), are grown in RPMI 1640 plus 10% (v/v) heat inactivated FBS, The cells are plated at 2.5×10^3 per well, in a volume of 100 μL on 96-well tissue culture plates and incubated for 24 h. Gemcitabine dilutions are prepared at 6× concentrations in McCoy's 5A medium (modified) (1×) and added to wells at 20 μper well. Gemcitabine dilutions were set up with the highest final concentration of gemcitabine being 1.0 μM and dilutions made by three-fold steps to 0.5 nM.
Chk1 Inhibitor is prepared by dilutions in DMSO to 4000× final concentration, and then diluted 666-fold into McCoy's medium to generate 6× stocks. Chk1 inhibitor dilutions proceed by 2.5-fold steps starting at 25 nM down to 0.3 nM. Twenty-two hours 1.0 after gemcitabine addition, Chk1, inhibitor is added in a volume of 24 μL to wells containing 120 μL of medium plus gemcitabine. Each gemcitabine dilution receives a single Chk1 inhibitor dilution. Control wells received DMSO, gemcitabine, or Chk1 inhibitor alone. Forty-four hours after addition of Chk1 inhibitor, 30 μL of CellTiter 96® AQueous assay reagent, is added to each well and held at room temperature for 1 hour and 45 minutes. Absorbance is read on a SpectraMax 250 (Molecular Devices) spectrophotometer at 490 nm. Data from the SpectraMax spectrophotometer are analyzed with GraphPad Prism 4.0. First, an averaged no cell control absorbance is subtracted from all other values in the matrix of data from each plate. Next, duplicate data points are averaged. Data are normalized for each Chk1 inhibitor concentration, with 0% cell number set as corrected A490=0, and 100% cell number set as the 0 nM gemcitabine mean value. […] Gemcitabine concentrations are converted to log concentrations, and normalized cell number values are converted to percent inhibition (percent inhibition=1.00-normalized value). Transformed data are plotted, and a non-linear regression is run to estimate an IC50 value for gemcitabine at each Chk1 inhibitor concentration. The nonlinear regression is calculated allowing the slope to vary, and without constraints for the top or bottom of the dose-response curves. The ECtfs value is calculated as follows: GI50 values for gemcitabine for each Chk1 inhibitor concentration are determined, plotted, and the concentration of Chk1 inhibitor necessary to decrease the gemcitabine alone GI50 by two-fold is determined by interpolation.
Compounds within the scope of the invention are tested in this assay run substantially as above. For example, the compound of Example 3 is tested and found to have an ECtfs value of 1.0 nM (SE=0.1, n=3). […]

[3] = system: HT-29 colon tumor xenograft; experiment: HT-29 tumor xenograft model, subcutaneous administration of Chk1 inhibitor; assay type: in vivo, nude mice; conditions: HT29, gemcitabine 60 mpk ip alone
Method: (§1) The ability of Chk1 inhibitors to potentiate tumor killing by DNA damaging agents can be determined in vivo using the Calu-6 lung and HT-29 colon tumor xenograft efficacy models. Calu-6 lung cancer cells are cultured in growth media (MEM with Earle's Balanced Salt Solution with L-glutamine supplemented with 10% (v/v) heat inactivated FBS, 1×MEM non-essential amino acids, 1× sodium pyruvate) and HT-29 colon cancer cells (ATCC) are cultured in growth media, (McCoy's 5A medium supplemented with 10% FBS) and expanded.
(§2) Cells are harvested and washed twice with phosphate buffered saline and 5×10^6 cells (HT-29) or 1×10^6 a cells (Calu-6) in growth media (without serum) are mixed with equal volume of BD Matrigel™ matrix, then injected subcutaneously into the flank of nude mice (CD-1 nu/nu).
(§3) At about day 16 after implant ([…]), gemcitabine is formulated fresh in saline daily and administered to animals by intraperitoneal route at 60 mg/kg dose. Twenty four hours later animals are administered the compound of Example 3, in 0.2% Tween-80/0.5% methylcellulose subcutaneously BID. After […], dosing is repeated for three additional cycles (Q4Dx4 with the compound of Example 3 offset+24 hours), Tumor growth inhibition (TGI) is calculated as the percent reduction in mean tumor size of a compound treated group from the mean tumor size of the vehicle-treated control group. Compounds within the scope of the invention are tested in this assay run substantially as above.

[4] = system: Calu-6 lung tumor xenograft; experiment: Calu-6 tumor xenograft model, oral administration of Chk1 inhibitor; assay type: in vivo, nude mice; conditions: Calu6, gemcitabine 40 mpk ip alone
Method: as §1, §2
(§4) At about day 16 after implant (150-200 mm^3), gemcitabine is formulated fresh in saline daily and administered to animals by intraperitoneal route at 40 mg/kg dose. Twenty four hours later animals are administered Chk1 compound, in 0.2% Tween-80/0.5% methylcellulose by the oral route MD. After three days of rest, dosing was repeated for three additional cycles (Q5Dx4 with the compound of Example 3 offset+24 hours). Tumor growth inhibition (TGI) is calculated as described in the previous paragraph. Compounds within the scope of the invention are tested in this assay run substantially as above.

[5] = system: Calu-6 lung tumor xenograft; experiment: Calu-6 tumor xenograft model, subcutaneous administration of Chk1 inhibitor; assay type: in vivo, nude mice; conditions: Calu 6, gemcitabine 60 mpk ip alone
Method: as §1, §2, §3

[6] = system: HT-29 colon tumor xenograft; experiment: HT-29 tumor xenograft model, oral administration of Chk1 inhibitor; assay type: in vivo, nude mice; conditions: HT29, gemcitabine 40 mpk ip alone
Method: as §1, §2, §4

recombinant Chk2 protein kinase, sequence (O96017 whole entry, the tested form may be a part): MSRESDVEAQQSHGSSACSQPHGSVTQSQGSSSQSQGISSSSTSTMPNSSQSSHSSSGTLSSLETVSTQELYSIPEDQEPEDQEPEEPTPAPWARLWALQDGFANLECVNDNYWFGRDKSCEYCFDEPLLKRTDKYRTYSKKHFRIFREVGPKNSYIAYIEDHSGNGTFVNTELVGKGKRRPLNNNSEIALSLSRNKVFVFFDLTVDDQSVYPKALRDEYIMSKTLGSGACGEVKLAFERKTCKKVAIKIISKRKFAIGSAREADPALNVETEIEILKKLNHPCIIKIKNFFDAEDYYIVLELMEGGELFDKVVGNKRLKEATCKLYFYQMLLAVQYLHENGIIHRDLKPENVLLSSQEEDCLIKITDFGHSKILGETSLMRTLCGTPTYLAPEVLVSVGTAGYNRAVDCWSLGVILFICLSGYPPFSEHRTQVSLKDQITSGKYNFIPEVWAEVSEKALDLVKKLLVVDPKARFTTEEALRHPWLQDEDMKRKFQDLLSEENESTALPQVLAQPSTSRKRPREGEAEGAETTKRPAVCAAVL

| Compound | IC50 [1] [nM] | EC50 (HeLa cells) [nM] | IC50 ([2]; [Example 3] 0 nM) [nM] | EC50 ([2]; gemcitabine alone) [nM] | % TGI at day 38 [3] [%] | % TGI at day 37 [4] [%] | % TGI at day 47 [5] [%] | % TGI at day 50 [6] [%] |
| --- | --- | --- | --- | --- | --- | --- | --- | --- |
| COc1nc(C)ccc1-c1cc(Nc2cncc(O[C@@H]3CCCNC3)n2)[nH]n1 [Example 2, (R)-[5-(2-Methoxy-6-mcethyl-pyridin-3-yl)-2H-pyrazol-3-yl]-[6-(piperidin-3-yloxy)-pyrazin-2-yl]-amine methane sulfonic acid salt] | 12 | 33 |  |  |  |  |  |  |
| Nc1ccn([C@@H]2O[C@H](CO)[C@@H](O)C2(F)F)c(=O)n1 [Gemcitabine, gemcitabine, reference compound] |  |  | 22 | 22 | 11 | 32 | −41 | 25 |

Source: patent US9067920B2, “Compounds useful for inhibiting Chk1” (Eli Lilly and Company, priority 2010, dated 2015)
